In the PolyMetriX glass transition set one finds glass transition temperature data, which are given here for 31 molecules.

`*Oc1ccc(C(=O)c2cccc(C(=O)c3ccc(*)cc3)c2)cc1` (repeat unit) showed a glass transition temperature of 139.00 °C.

In turn, `*c1ccc(OCCCCCCCCCCOc2ccc(N3C(=O)c4ccc(-c5ccc6c(c5)C(=O)N(*)C6=O)cc4C3=O)cc2)cc1` (repeat unit) came in with a glass transition temperature of 153.00 °C.

For the molecule `*c1ccc(OCCCOc2ccc(N3C(=O)c4ccc(-c5cccc6c5C(=O)N(*)C6=O)cc4C3=O)cc2)cc1` (repeat unit), the glass transition temperature was determined as 237.50 °C.

In turn, `*c1ccc(Oc2cc3ccccc3cc2Oc2ccc(N3C(=O)c4ccc(S(=O)(=O)c5ccc6c(c5)C(=O)N(*)C6=O)cc4C3=O)cc2)cc1` (repeat unit) showed a glass transition temperature of 275.00 °C.

`*c1ccc(Oc2ccc(C(=O)c3cccc(C(=O)c4ccc(Oc5ccc(N6C(=O)c7ccc(Oc8ccc9c(c8)C(=O)N(*)C9=O)cc7C6=O)cc5)cc4)c3)cc2)cc1` (repeat unit): the glass transition temperature was 208.00 °C.

Take `*c1ccc(Oc2ccc(C(c3ccc(Oc4ccc(N5C(=O)c6ccc(-c7ccc8c(c7)C(=O)N(*)C8=O)cc6C5=O)cc4C(F)(F)F)cc3)(C(F)(F)F)C(F)(F)F)cc2)c(C(F)(F)F)c1` (repeat unit): the glass transition temperature was determined as 223.00 °C.

`*c1ccc(Oc2ccc(N3C(=O)c4ccc([Si](C)(C)c5ccc6c(c5)C(=O)N(*)C6=O)cc4C3=O)cc2)cc1` (repeat unit) displayed a glass transition temperature of 274.00 °C.

`*c1ccc(Oc2ccc(Oc3ccc(N4C(=O)c5ccc(-c6cccc7c6C(=O)N(*)C7=O)cc5C4=O)cc3)cc2)cc1` (repeat unit) registered a glass transition temperature of 285.00 °C.

`*c1ccc(Oc2ccc(S(=O)(=O)c3ccc(Oc4ccc(N5C(=O)c6ccc(S(=O)(=O)c7ccc8c(c7)C(=O)N(*)C8=O)cc6C5=O)cc4)cc3)cc2)cc1` (repeat unit) returned a glass transition temperature of 274.00 °C.

The molecule `*c1ccc(Oc2cccc(N3C(=O)c4ccc(-c5ccc6c(c5)C(=O)N(*)C6=O)cc4C3=O)c2)cc1` (repeat unit) yielded a glass transition temperature of 259.00 °C.

Take `*c1ccc(Oc2cccc(Oc3ccc(N4C(=O)c5ccc(-c6ccc7c(c6)C(=O)N(*)C7=O)cc5C4=O)cc3)c2)cc1` (repeat unit): the glass transition temperature was found to be 234.00 °C.

In turn, `*c1ccc(Oc2ccccc2Oc2ccc(N3C(=O)c4ccc(-c5ccc6c(c5)C(=O)N(*)C6=O)cc4C3=O)cc2C(F)(F)F)c(C(F)(F)F)c1` (repeat unit) displayed a glass transition temperature of 249.00 °C.

Consider `*c1ccc2c(c1)C(=O)N(c1ccc(NC(=O)C(F)(F)C(F)(F)C(F)(F)C(F)(F)C(=O)Nc3ccc(N4C(=O)c5ccc(C(*)(C(F)(F)F)C(F)(F)F)cc5C4=O)cc3)cc1)C2=O` (repeat unit), for which the glass transition temperature worked out at 285.00 °C.

Molecule `*c1ccc2c(c1)C(=O)N(c1ccc(NC(=S)/N=C/c3ccc(Cl)c(N4C(=O)c5ccc(C(*)(C(F)(F)F)C(F)(F)F)cc5C4=O)c3)cc1)C2=O` (repeat unit) returned a glass transition temperature of 272.00 °C.

As for `*c1ccc2c(c1)C(=O)N(c1ccc(OCCCCCCCCCCOc3ccc(N4C(=O)c5ccc(C(*)(C(F)(F)F)C(F)(F)F)cc5C4=O)cc3)cc1)C2=O` (repeat unit), the glass transition temperature was 143.00 °C.

In turn, `*c1ccc2c(c1)C(=O)N(c1ccc(OCCCCCCOc3ccc(N4C(=O)c5ccc(C(*)(C(F)(F)F)C(F)(F)F)cc5C4=O)cc3)cc1)C2=O` (repeat unit) yielded a glass transition temperature of 167.00 °C.

On to `*c1ccc2c(c1)C(=O)N(c1ccc(OCCCCOc3ccc(N4C(=O)c5ccc(C(*)(C(F)(F)F)C(F)(F)F)cc5C4=O)cc3)cc1)C2=O` (repeat unit), for which the glass transition temperature was found to be 169.00 °C.

`*c1ccc2c(c1)C(=O)N(c1ccc(OCCOCCOCCOCCOc3ccc(N4C(=O)c5ccc(C(*)(C(F)(F)F)C(F)(F)F)cc5C4=O)cc3)cc1)C2=O` (repeat unit) came in with a glass transition temperature of 140.00 °C.

On to `*c1ccc2c(c1)C(=O)N(c1ccc(OCCOCCOCCOc3ccc(N4C(=O)c5ccc(C(*)(C(F)(F)F)C(F)(F)F)cc5C4=O)cc3)cc1)C2=O` (repeat unit), for which the glass transition temperature was determined as 166.00 °C.

In turn, `*c1ccc2c(c1)C(=O)N(c1ccc(OCCOc3ccc(N4C(=O)c5ccc(C(*)(C(F)(F)F)C(F)(F)F)cc5C4=O)cc3)cc1)C2=O` (repeat unit) registered a glass transition temperature of 254.00 °C.

Molecule `*c1ccc2c(c1)C(=O)N(c1ccc(Oc3ccc(N4C(=O)c5ccc(-c6c(-c7ccccc7)c(-c7ccccc7)c(-c7ccc(Oc8ccc(-c9c(-c%10ccccc%10)c(-c%10ccccc%10)c(*)c(-c%10ccccc%10)c9-c9ccccc9)cc8)cc7)c(-c7ccccc7)c6-c6ccccc6)cc5C4=O)cc3)cc1)C2=O` (repeat unit) gave a glass transition temperature of 329.00 °C.

In turn, `*c1ccc2c(c1)C(=O)N(c1ccc(Oc3ccc(N4C(=O)c5ccc(-c6c(-c7ccccc7)c(-c7ccccc7)c(-c7ccc(Sc8ccc(-c9c(-c%10ccccc%10)c(-c%10ccccc%10)c(*)c(-c%10ccccc%10)c9-c9ccccc9)cc8)cc7)c(-c7ccccc7)c6-c6ccccc6)cc5C4=O)cc3)cc1)C2=O` (repeat unit) had a glass transition temperature of 322.00 °C.

As to `*c1ccc2c(c1)C(=O)N(c1ccc(Oc3ccc(N4C(=O)c5ccc(C(*)(C(F)(F)F)C(F)(F)F)cc5C4=O)cc3)c(O)c1)C2=O` (repeat unit), the glass transition temperature was found to be 292.00 °C.

Turning to `*c1ccc2c(c1)C(=O)N(c1ccc(Oc3ccc(N4C(=O)c5ccc(C(*)O[Si](C)(C)C)cc5C4=O)cc3)cc1)C2=O` (repeat unit), the glass transition temperature is 210.00 °C.

In the case of `*c1ccc2c(c1)C(=O)N(c1ccc(Oc3ccc(N4C(=O)c5ccc(C(F)(F)C(F)(F)C(F)(F)C(*)(F)F)cc5C4=O)cc3)cc1)C2=O` (repeat unit), the glass transition temperature came to 212.00 °C.

`*c1ccc2c(c1)C(=O)N(c1ccc(Oc3ccc(N4C(=O)c5ccc(C(F)(F)C(F)(F)C(F)(F)C(F)(F)C(F)(F)C(*)(F)F)cc5C4=O)cc3)cc1)C2=O` (repeat unit): the glass transition temperature turned out to be 185.00 °C.

Turning to `*c1ccc2c(c1)C(=O)N(c1ccc(Oc3ccc(Oc4ccc(N5C(=O)c6ccc(C(*)(C(F)(F)F)C(F)(F)F)cc6C5=O)cc4)cc3)cc1)C2=O` (repeat unit), the glass transition temperature worked out at 279.00 °C.

Molecule `*c1ccc2c(c1)C(=O)N(c1ccc(Oc3cccc(-c4cc(-c5ccccc5)cc(-c5cccc(Oc6ccc(N7C(=O)c8ccc(C(*)(C(F)(F)F)C(F)(F)F)cc8C7=O)cc6)c5)n4)c3)cc1)C2=O` (repeat unit) yielded a glass transition temperature of 180.00 °C.

`*c1ccc2c(c1)C(=O)N(c1ccc(Oc3ccccc3-c3ccccc3Oc3ccc(N4C(=O)c5ccc(C(*)(C(F)(F)F)C(F)(F)F)cc5C4=O)cc3)cc1)C2=O` (repeat unit) came in with a glass transition temperature of 78.00 °C.

`*c1ccc2c(c1)C(=O)N(c1ccc(S(=O)(=O)c3ccc(S(=O)(=O)c4ccc(N5C(=O)c6ccc(C(*)(C(F)(F)F)C(F)(F)F)cc6C5=O)cc4)cc3)cc1)C2=O` (repeat unit): the glass transition temperature was determined as 331.00 °C.

Molecule `*c1ccc2c(c1)C(=O)N(c1cccc(Oc3ccc(N4C(=O)c5ccc(-c6c(-c7ccccc7)c(-c7ccccc7)c(-c7ccc(Sc8ccc(-c9c(-c%10ccccc%10)c(-c%10ccccc%10)c(*)c(-c%10ccccc%10)c9-c9ccccc9)cc8)cc7)c(-c7ccccc7)c6-c6ccccc6)cc5C4=O)cc3)c1)C2=O` (repeat unit) yielded a glass transition temperature of 300.00 °C.
